Source: publication PMC7053747 (PLoS ONE, 2020)

Biological target: human mu opioid receptor
Experiment: not given
Details: read-out: binding affinity; cited from earlier work

Structure (SMILES) | Ki
C=C[C@H]1CN2CCc3c([nH]c4cccc(OC)c34)[C@@H]2C[C@@H]1/C(=C\OC)C(=O)OC [Compound 5, Paynantheine] | 0.41 ± 0.2 µM

Biological target: T1, serotonin 5HT1A receptor (Homo sapiens, UniProt P08908)
T1 sequence (P08908 1-422): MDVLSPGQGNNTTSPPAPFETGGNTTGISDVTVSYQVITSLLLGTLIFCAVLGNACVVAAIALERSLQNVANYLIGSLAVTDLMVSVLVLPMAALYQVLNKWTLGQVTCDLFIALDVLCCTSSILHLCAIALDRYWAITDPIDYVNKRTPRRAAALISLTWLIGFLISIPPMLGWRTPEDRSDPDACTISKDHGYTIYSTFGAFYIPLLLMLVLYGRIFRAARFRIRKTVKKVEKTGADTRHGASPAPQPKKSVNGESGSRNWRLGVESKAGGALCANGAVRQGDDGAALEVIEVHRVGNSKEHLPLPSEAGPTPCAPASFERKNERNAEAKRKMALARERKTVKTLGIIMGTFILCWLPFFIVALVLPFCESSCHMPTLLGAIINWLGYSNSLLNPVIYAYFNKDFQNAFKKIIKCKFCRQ
Experiment: biochemical
Format: binding
Details: not given

Structure (SMILES) | Ki
C=C[C@H]1CN2CC[C@@]3(C(=O)Nc4ccccc43)[C@@H]2C[C@@H]1/C(=C\OC)C(=O)OC [Compound 21, Isocorynoxeine] | > 10 µM
COC(=O)C1=CO[C@@H](C)C2CN3CCc4c([nH]c5ccccc45)[C@@H]3C[C@H]12 (stereo partly shown) [Compound 11, Ajmalicine] | 0.42 µM
C=C[C@H]1CN2CC[C@]3(C(=O)Nc4ccccc43)[C@@H]2C[C@@H]1/C(=C\OC)C(=O)OC [Compound 20, Corynoxeine] | > 10 µM
CC[C@@H]1CN2CC[C@]3(C(=O)Nc4ccccc43)[C@@H]2C[C@@H]1/C(=C\OC)C(=O)OC [Compound 14, Corynoxine B] | > 10 µM
CC[C@H]1CN2CC[C@@]3(C(=O)Nc4ccccc43)[C@@H]2C[C@@H]1/C(=C\OC)C(=O)OC [Compound 16, Isorhynchophylline] | > 10 µM

Biological target: T2, adrenergic alpha2A receptor (Homo sapiens, UniProt P08913)
T2 sequence (P08913 1-465): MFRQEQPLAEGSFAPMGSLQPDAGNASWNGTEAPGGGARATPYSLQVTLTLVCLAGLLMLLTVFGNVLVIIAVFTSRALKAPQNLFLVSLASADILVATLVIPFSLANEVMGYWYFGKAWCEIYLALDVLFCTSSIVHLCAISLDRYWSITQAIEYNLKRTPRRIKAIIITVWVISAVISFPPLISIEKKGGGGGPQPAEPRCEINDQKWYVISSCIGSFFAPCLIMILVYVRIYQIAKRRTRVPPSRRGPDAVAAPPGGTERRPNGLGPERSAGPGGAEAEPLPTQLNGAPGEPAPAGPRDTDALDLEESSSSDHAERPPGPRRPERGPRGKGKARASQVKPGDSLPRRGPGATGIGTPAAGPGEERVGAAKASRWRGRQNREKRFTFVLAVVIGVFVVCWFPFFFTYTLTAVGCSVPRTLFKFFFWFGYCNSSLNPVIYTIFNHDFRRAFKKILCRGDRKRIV
Experiment: biochemical
Format: binding
Details: not given

Structure (SMILES) | Ki
C=C[C@H]1CN2CC[C@@]3(C(=O)Nc4ccccc43)[C@@H]2C[C@@H]1/C(=C\OC)C(=O)OC [Compound 21, Isocorynoxeine] | > 10 µM
COC(=O)C1=CO[C@@H](C)C2CN3CCc4c([nH]c5ccccc45)[C@@H]3C[C@H]12 (stereo partly shown) [Compound 11, Ajmalicine] | 0.045 µM
C=C[C@H]1CN2CC[C@]3(C(=O)Nc4ccccc43)[C@@H]2C[C@@H]1/C(=C\OC)C(=O)OC [Compound 20, Corynoxeine] | > 10 µM
CC[C@@H]1CN2CC[C@]3(C(=O)Nc4ccccc43)[C@@H]2C[C@@H]1/C(=C\OC)C(=O)OC [Compound 14, Corynoxine B] | > 10 µM
CC[C@H]1CN2CC[C@@]3(C(=O)Nc4ccccc43)[C@@H]2C[C@@H]1/C(=C\OC)C(=O)OC [Compound 16, Isorhynchophylline] | 4.8 µM

Biological target: T3, serotonin 5HT2A receptor (Homo sapiens, UniProt P28223)
T3 construct: host or cells: transient HEKT cells (ATCC CRL-11268)
Experiment: biochemical
Format: binding
Details: not given

T3 sequence (P28223 whole entry): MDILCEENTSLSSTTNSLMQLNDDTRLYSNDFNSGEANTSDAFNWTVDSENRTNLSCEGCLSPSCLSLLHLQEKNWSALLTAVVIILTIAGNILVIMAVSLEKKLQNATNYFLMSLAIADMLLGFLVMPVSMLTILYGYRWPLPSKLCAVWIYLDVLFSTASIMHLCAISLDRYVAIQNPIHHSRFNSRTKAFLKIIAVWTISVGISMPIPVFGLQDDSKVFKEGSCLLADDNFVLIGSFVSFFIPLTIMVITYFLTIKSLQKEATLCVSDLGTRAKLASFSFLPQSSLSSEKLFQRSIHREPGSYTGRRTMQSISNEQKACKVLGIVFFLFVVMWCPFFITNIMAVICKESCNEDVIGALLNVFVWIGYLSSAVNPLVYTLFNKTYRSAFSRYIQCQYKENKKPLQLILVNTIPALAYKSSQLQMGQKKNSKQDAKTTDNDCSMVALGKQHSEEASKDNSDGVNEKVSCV

Structure (SMILES) | Ki
C=C[C@H]1CN2CC[C@@]3(C(=O)Nc4ccccc43)[C@@H]2C[C@@H]1/C(=C\OC)C(=O)OC [Compound 21, Isocorynoxeine] | > 10 µM
COC(=O)C1=CO[C@@H](C)C2CN3CCc4c([nH]c5ccccc45)[C@@H]3C[C@H]12 (stereo partly shown) [Compound 11, Ajmalicine] | > 10 µM
C=C[C@H]1CN2CC[C@]3(C(=O)Nc4ccccc43)[C@@H]2C[C@@H]1/C(=C\OC)C(=O)OC [Compound 20, Corynoxeine] | > 10 µM
CC[C@@H]1CN2CC[C@]3(C(=O)Nc4ccccc43)[C@@H]2C[C@@H]1/C(=C\OC)C(=O)OC [Compound 14, Corynoxine B] | > 10 µM
CC[C@H]1CN2CC[C@@]3(C(=O)Nc4ccccc43)[C@@H]2C[C@@H]1/C(=C\OC)C(=O)OC [Compound 16, Isorhynchophylline] | > 10 µM

Biological target: human delta opioid receptor
Experiment: not given
Details: read-out: binding affinity; cited from earlier work

Structure (SMILES) | Ki
C=C[C@H]1CN2CCc3c([nH]c4cccc(OC)c34)[C@@H]2C[C@@H]1/C(=C\OC)C(=O)OC [Compound 5, Paynantheine] | > 10 µM

Biological target: rodent delta opioid receptor
Experiment: not given
Details: read-out: binding affinity; cited from earlier work

Structure (SMILES) | Ki
C=C[C@H]1CN2CCc3c([nH]c4cccc(OC)c34)[C@@H]2C[C@@H]1/C(=C\OC)C(=O)OC [Compound 5, Paynantheine] | 4.3 ± 0.7 µM

System: human mu opioid receptor
Experiment: not given
Details: cited from earlier work

Structure (SMILES) | functional activity (BRET)
C=C[C@H]1CN2CCc3c([nH]c4cccc(OC)c34)[C@@H]2C[C@@H]1/C(=C\OC)C(=O)OC [Compound 5, Paynantheine] | antagonist

Biological target: rodent kappa opioid receptor
Experiment: not given
Details: read-out: binding affinity; cited from earlier work

Structure (SMILES) | Ki
C=C[C@H]1CN2CCc3c([nH]c4cccc(OC)c34)[C@@H]2C[C@@H]1/C(=C\OC)C(=O)OC [Compound 5, Paynantheine] | 0.89 ± 0.3 µM

Biological target: mu opioid receptor (Homo sapiens, UniProt P35372)
Experiment: biochemical
Format: binding
Details: not given

Chain of mu opioid receptor (P35372 whole entry): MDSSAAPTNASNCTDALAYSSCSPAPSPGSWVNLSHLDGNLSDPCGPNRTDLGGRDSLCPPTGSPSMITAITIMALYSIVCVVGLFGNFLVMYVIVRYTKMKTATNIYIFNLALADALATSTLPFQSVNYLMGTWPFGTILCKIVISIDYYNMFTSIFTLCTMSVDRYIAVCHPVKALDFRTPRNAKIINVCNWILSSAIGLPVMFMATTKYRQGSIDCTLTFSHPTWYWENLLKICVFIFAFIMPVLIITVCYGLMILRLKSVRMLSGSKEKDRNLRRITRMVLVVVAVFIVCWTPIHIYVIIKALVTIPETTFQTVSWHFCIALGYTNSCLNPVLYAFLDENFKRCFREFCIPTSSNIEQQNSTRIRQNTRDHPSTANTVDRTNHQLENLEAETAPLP

Structure (SMILES) | Ki
C=C[C@H]1CN2CC[C@@]3(C(=O)Nc4ccccc43)[C@@H]2C[C@@H]1/C(=C\OC)C(=O)OC [Compound 21, Isocorynoxeine] | > 10 µM
COC(=O)C1=CO[C@@H](C)C2CN3CCc4c([nH]c5ccccc45)[C@@H]3C[C@H]12 (stereo partly shown) [Compound 11, Ajmalicine] | 8.96 µM
C=C[C@H]1CN2CC[C@]3(C(=O)Nc4ccccc43)[C@@H]2C[C@@H]1/C(=C\OC)C(=O)OC [Compound 20, Corynoxeine] | > 10 µM
CC[C@@H]1CN2CC[C@]3(C(=O)Nc4ccccc43)[C@@H]2C[C@@H]1/C(=C\OC)C(=O)OC [Compound 14, Corynoxine B] | 1.6 µM

Biological target: kappa opioid receptor (Homo sapiens, UniProt P41145)
Experiment: biochemical
Format: binding
Details: not given

Chain of kappa opioid receptor (P41145 whole entry): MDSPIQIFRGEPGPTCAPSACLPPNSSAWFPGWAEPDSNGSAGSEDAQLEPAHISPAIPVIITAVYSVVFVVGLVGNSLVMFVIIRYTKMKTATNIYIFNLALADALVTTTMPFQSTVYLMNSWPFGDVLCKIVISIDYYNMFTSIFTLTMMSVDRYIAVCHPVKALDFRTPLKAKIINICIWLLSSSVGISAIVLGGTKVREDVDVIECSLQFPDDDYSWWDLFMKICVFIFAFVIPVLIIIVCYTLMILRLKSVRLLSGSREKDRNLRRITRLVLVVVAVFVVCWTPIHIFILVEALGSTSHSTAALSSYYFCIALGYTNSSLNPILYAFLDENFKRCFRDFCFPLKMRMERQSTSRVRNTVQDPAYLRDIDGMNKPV

Structure (SMILES) | Ki
C=C[C@H]1CN2CC[C@@]3(C(=O)Nc4ccccc43)[C@@H]2C[C@@H]1/C(=C\OC)C(=O)OC [Compound 21, Isocorynoxeine] | > 10 µM
COC(=O)C1=CO[C@@H](C)C2CN3CCc4c([nH]c5ccccc45)[C@@H]3C[C@H]12 (stereo partly shown) [Compound 11, Ajmalicine] | > 10 µM
C=C[C@H]1CN2CC[C@]3(C(=O)Nc4ccccc43)[C@@H]2C[C@@H]1/C(=C\OC)C(=O)OC [Compound 20, Corynoxeine] | > 10 µM
CC[C@@H]1CN2CC[C@]3(C(=O)Nc4ccccc43)[C@@H]2C[C@@H]1/C(=C\OC)C(=O)OC [Compound 14, Corynoxine B] | > 10 µM
CC[C@H]1CN2CC[C@@]3(C(=O)Nc4ccccc43)[C@@H]2C[C@@H]1/C(=C\OC)C(=O)OC [Compound 16, Isorhynchophylline] | > 10 µM

Biological target: T4, adrenergic alpha2C receptor (Homo sapiens, UniProt P18825)
T4 sequence (P18825 1-462): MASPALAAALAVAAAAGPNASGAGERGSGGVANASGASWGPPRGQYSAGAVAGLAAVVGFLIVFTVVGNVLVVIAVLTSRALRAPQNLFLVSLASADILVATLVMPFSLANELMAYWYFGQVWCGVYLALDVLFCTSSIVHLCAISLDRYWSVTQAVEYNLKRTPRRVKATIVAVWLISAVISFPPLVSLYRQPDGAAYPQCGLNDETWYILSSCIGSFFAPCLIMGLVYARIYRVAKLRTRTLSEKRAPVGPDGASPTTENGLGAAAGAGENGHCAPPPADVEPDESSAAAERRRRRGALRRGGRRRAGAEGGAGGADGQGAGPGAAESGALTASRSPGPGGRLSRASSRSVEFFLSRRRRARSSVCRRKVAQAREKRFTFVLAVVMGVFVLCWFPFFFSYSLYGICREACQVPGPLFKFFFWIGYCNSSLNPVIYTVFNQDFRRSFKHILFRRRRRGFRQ
Experiment: biochemical
Format: binding
Details: not given

Structure (SMILES) | Ki
C=C[C@H]1CN2CC[C@@]3(C(=O)Nc4ccccc43)[C@@H]2C[C@@H]1/C(=C\OC)C(=O)OC [Compound 21, Isocorynoxeine] | > 10 µM
COC(=O)C1=CO[C@@H](C)C2CN3CCc4c([nH]c5ccccc45)[C@@H]3C[C@H]12 (stereo partly shown) [Compound 11, Ajmalicine] | 0.065 µM
C=C[C@H]1CN2CC[C@]3(C(=O)Nc4ccccc43)[C@@H]2C[C@@H]1/C(=C\OC)C(=O)OC [Compound 20, Corynoxeine] | > 10 µM
CC[C@@H]1CN2CC[C@]3(C(=O)Nc4ccccc43)[C@@H]2C[C@@H]1/C(=C\OC)C(=O)OC [Compound 14, Corynoxine B] | > 10 µM
CC[C@H]1CN2CC[C@@]3(C(=O)Nc4ccccc43)[C@@H]2C[C@@H]1/C(=C\OC)C(=O)OC [Compound 16, Isorhynchophylline] | > 10 µM

Biological target: rodent mu opioid receptor
Experiment: not given
Details: read-out: binding affinity; cited from earlier work

Structure (SMILES) | Ki
C=C[C@H]1CN2CCc3c([nH]c4cccc(OC)c34)[C@@H]2C[C@@H]1/C(=C\OC)C(=O)OC [Compound 5, Paynantheine] | 0.67 ± 0.08 µM

Biological target: T5, adrenergic alpha2B receptor (Homo sapiens, UniProt P18089)
T5 construct: host or cells: transient HEKT cells
T5 sequence (P18089 1-450): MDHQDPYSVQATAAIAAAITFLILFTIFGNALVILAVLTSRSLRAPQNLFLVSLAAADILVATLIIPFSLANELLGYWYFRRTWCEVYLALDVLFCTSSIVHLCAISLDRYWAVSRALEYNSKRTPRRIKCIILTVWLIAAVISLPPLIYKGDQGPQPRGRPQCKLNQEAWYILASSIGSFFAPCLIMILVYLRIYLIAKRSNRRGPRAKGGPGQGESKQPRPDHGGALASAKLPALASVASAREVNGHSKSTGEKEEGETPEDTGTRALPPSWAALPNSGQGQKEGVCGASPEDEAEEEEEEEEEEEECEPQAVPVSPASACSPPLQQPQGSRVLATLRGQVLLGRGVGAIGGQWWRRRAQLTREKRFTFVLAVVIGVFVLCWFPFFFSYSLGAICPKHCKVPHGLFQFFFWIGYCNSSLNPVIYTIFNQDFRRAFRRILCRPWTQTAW
Experiment: biochemical
Format: binding
Details: not given

Structure (SMILES) | Ki
C=C[C@H]1CN2CC[C@@]3(C(=O)Nc4ccccc43)[C@@H]2C[C@@H]1/C(=C\OC)C(=O)OC [Compound 21, Isocorynoxeine] | > 10 µM
C=C[C@H]1CN2CC[C@]3(C(=O)Nc4ccccc43)[C@@H]2C[C@@H]1/C(=C\OC)C(=O)OC [Compound 20, Corynoxeine] | 8.4 µM
CC[C@@H]1CN2CC[C@]3(C(=O)Nc4ccccc43)[C@@H]2C[C@@H]1/C(=C\OC)C(=O)OC [Compound 14, Corynoxine B] | > 10 µM
CC[C@H]1CN2CC[C@@]3(C(=O)Nc4ccccc43)[C@@H]2C[C@@H]1/C(=C\OC)C(=O)OC [Compound 16, Isorhynchophylline] | > 10 µM

System: rodent mu opioid receptors
Experiment: not given
Details: cited from earlier work

Structure (SMILES) | functional activity (BRET)
C=C[C@H]1CN2CCc3c([nH]c4cccc(OC)c34)[C@@H]2C[C@@H]1/C(=C\OC)C(=O)OC [Compound 5, Paynantheine] | no agonist or antagonist activity

Biological target: human kappa opioid receptor
Experiment: not given
Details: read-out: binding affinity; cited from earlier work

Structure (SMILES) | Ki
C=C[C@H]1CN2CCc3c([nH]c4cccc(OC)c34)[C@@H]2C[C@@H]1/C(=C\OC)C(=O)OC [Compound 5, Paynantheine] | 2.6 ± 0.4 µM

Biological target: delta opioid receptor (Homo sapiens, UniProt P41143)
Experiment: biochemical
Format: binding
Details: not given

Chain of delta opioid receptor (P41143 whole entry): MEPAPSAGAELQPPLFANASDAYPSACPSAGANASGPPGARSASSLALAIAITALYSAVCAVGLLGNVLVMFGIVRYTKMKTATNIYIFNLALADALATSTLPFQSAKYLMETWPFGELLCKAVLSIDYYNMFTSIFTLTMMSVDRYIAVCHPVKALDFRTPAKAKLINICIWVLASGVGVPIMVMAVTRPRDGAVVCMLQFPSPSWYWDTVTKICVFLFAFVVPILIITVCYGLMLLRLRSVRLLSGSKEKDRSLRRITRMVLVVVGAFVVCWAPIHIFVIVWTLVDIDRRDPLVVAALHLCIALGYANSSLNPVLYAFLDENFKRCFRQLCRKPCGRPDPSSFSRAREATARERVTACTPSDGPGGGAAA

Structure (SMILES) | Ki
C=C[C@H]1CN2CC[C@@]3(C(=O)Nc4ccccc43)[C@@H]2C[C@@H]1/C(=C\OC)C(=O)OC [Compound 21, Isocorynoxeine] | > 10 µM
COC(=O)C1=CO[C@@H](C)C2CN3CCc4c([nH]c5ccccc45)[C@@H]3C[C@H]12 (stereo partly shown) [Compound 11, Ajmalicine] | > 10 µM
C=C[C@H]1CN2CC[C@]3(C(=O)Nc4ccccc43)[C@@H]2C[C@@H]1/C(=C\OC)C(=O)OC [Compound 20, Corynoxeine] | > 10 µM
CC[C@@H]1CN2CC[C@]3(C(=O)Nc4ccccc43)[C@@H]2C[C@@H]1/C(=C\OC)C(=O)OC [Compound 14, Corynoxine B] | 7.6 µM
CC[C@H]1CN2CC[C@@]3(C(=O)Nc4ccccc43)[C@@H]2C[C@@H]1/C(=C\OC)C(=O)OC [Compound 16, Isorhynchophylline] | 6.4 µM
